Measured values published in the Kinase Knowledgebase extract (Sharma et al. 2016).
pIC50: −log10 of the molar value.

Molecular target: PIK3CA (human) (UniProt P42336)
Assay: Assessment of PIK3CA Kinase Activity

Sequence of PIK3CA (human) (P42336 whole entry, looked up): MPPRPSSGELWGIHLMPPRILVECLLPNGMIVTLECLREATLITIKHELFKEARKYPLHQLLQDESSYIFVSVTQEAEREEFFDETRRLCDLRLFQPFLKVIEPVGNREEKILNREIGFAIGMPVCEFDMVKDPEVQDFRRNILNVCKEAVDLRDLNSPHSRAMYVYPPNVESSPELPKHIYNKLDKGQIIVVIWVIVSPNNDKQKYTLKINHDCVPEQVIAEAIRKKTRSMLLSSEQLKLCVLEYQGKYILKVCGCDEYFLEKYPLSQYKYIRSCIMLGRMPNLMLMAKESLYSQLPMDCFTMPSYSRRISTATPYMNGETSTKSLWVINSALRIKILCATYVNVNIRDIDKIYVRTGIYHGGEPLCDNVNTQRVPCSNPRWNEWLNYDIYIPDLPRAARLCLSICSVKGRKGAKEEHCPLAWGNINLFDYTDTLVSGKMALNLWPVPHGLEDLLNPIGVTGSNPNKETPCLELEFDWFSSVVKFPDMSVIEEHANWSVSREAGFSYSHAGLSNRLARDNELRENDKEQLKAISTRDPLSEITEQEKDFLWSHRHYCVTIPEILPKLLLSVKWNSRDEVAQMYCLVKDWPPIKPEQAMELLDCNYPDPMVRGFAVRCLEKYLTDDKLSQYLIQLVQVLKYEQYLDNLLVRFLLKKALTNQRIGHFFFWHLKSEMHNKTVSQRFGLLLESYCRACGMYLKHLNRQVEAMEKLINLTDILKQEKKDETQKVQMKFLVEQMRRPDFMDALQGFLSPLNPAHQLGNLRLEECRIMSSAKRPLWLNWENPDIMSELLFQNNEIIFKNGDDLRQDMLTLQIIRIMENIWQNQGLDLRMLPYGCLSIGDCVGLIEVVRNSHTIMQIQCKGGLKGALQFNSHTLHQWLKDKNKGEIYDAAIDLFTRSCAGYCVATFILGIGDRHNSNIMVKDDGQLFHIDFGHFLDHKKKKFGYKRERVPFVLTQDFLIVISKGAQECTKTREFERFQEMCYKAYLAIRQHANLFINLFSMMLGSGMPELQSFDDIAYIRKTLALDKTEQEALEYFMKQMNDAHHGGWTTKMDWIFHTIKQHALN

Point of comparison: `CS(=O)(=O)N1CCC(Nc2nn3c(-c4cnc(N)c(C(F)(F)F)c4)c(Cl)nc3s2)CC1`, pIC50 7.62. Against it:
- CC(C)(C)OC(=O)NC1CCCN(c2nn3c(-c4cnc(N)c(C(F)(F)F)c4)cnc3s2)C1 (configuration not stated) — 0.98 log units lower, 6.64
- NCCCNc1nn2c(-c3cnc(N)c(C(F)(F)F)c3)cnc2s1 — lower, 6.00 to 7.30
- CS(=O)(=O)NCCCNc1nn2c(-c3cnc(N)c(C(F)(F)F)c3)cnc2s1 — not separable, 7.30 to 9.00
- Nc1ncc(-c2cnc3sc(N4CCNCC4)nn23)cc1C(F)(F)F — 1.73 log units lower, 5.89
- Nc1ncc(-c2c(Cl)nc3sc(N[C@H]4CC[C@H](N)CC4)nn23)cc1C(F)(F)F — 0.66 log units lower, 6.96
- CC(=O)N[C@H]1CC[C@H](Nc2nn3c(-c4cnc(N)c(C(F)(F)F)c4)cnc3s2)CC1 — lower, 6.00 to 7.30
- CCNC(=O)N[C@H]1CC[C@H](Nc2nn3c(-c4cnc(N)c(C(F)(F)F)c4)c(Cl)nc3s2)CC1 — not separable, 7.30 to 9.00
- CS(=O)(=O)N1CC2CN(c3nn4c(-c5cnc(N)c(C(F)(F)F)c5)cnc4s3)CC2C1 (configuration not stated) — within 0.2 log units, 7.47
- CC(C)(C)OC(=O)N1C[C@@H]2CN(c3nn4c(-c5cnc(N)c(C(F)(F)F)c5)cnc4s3)C[C@@H]2C1 — 0.70 log units lower, 6.92
- Nc1ncc(-c2cnc3sc(N4CCCC5(CCNCC5)C4)nn23)cc1C(F)(F)F — lower, 6.00 to 7.30
- CC(C)(C)OC(=O)N1CCN(c2nn3c(-c4cnc(N)c(C(F)(F)F)c4)cnc3s2)CC1 — lower, 6.00 to 7.30
- CN1CCN(c2ncc(-c3cnc4sc(NC5CCN(S(C)(=O)=O)CC5)nn34)cc2C(F)(F)F)CC1 — 2.98 log units lower, 4.64
- CN1CCN(C(=O)NCCNc2nn3c(-c4cnc(N)c(C(F)(F)F)c4)cnc3s2)CC1 — 1.04 log units lower, 6.58
- COc1cncc(-c2cnc3sc(NCC4CCN(S(C)(=O)=O)CC4)nn23)c1 — lower, 6.00 to 7.30
- CC(C)(C)OC(=O)N1CCC2(CCCN(c3nn4c(-c5cnc(N)c(C(F)(F)F)c5)cnc4s3)C2)CC1 — lower, 6.00 to 7.30
- Nc1ncc(-c2cnc3sc(N4CCCC(O)C4)nn23)cc1C(F)(F)F (configuration not stated) — lower, 6.00 to 7.30
- Nc1ncc(-c2cnc3sc(N[C@H]4CC[C@@H](N)CC4)nn23)cc1C(F)(F)F — not separable, 7.30 to 9.00
- CS(=O)(=O)NCCNc1nn2c(-c3cnc(N)c(C(F)(F)F)c3)cnc2s1 — 1.05 log units lower, 6.57
- CS(=O)(=O)NCC1CCCN(c2nn3c(-c4cnc(N)c(C(F)(F)F)c4)cnc3s2)C1 (configuration not stated) — 0.63 log units lower, 6.99
- CC(=O)NC1CCCN(c2nn3c(-c4cnc(N)c(C(F)(F)F)c4)cnc3s2)C1 (configuration not stated) — 1.06 log units lower, 6.56
- CCNC(=O)N[C@H]1CC[C@@H](Nc2nn3c(-c4cnc(N)c(C(F)(F)F)c4)c(Cl)nc3s2)CC1 — lower, 6.00 to 7.30
- CCNC(=O)N[C@H]1CC[C@H](Nc2nn3c(-c4cnc(N)c(C(F)(F)F)c4)cnc3s2)CC1 — 0.68 log units higher, 8.30
- CS(=O)(=O)N1CCN2CCN(c3nn4c(-c5cnc(N)c(C(F)(F)F)c5)cnc4s3)CC2C1 (configuration not stated) — 0.59 log units lower, 7.03
- CS(=O)(=O)N1CCN(c2nn3c(-c4cnc(N)c(C(F)(F)F)c4)cnc3s2)CC1 — lower, 6.00 to 7.30
- CN(c1nn2c(-c3cnc(N)c(C(F)(F)F)c3)cnc2s1)C1CCC(=NO)CC1 (configuration not stated) — 0.53 log units lower, 7.09
- CC(C)(C)OC(=O)N1CCC(Nc2nn3c(-c4cnc(N)c(C(F)(F)F)c4)cnc3s2)CC1 — lower, 6.00 to 7.30
- CC(C)(C)OC(=O)N1CCC(CNc2nn3c(-c4cnc(N)c(C(F)(F)F)c4)cnc3s2)CC1 — lower, 6.00 to 7.30
- Nc1ncc(-c2cnc3sc(N[C@H]4CC[C@@H](O)CC4)nn23)cc1C(F)(F)F — 0.51 log units lower, 7.11
- Nc1ncc(-c2c(Cl)nc3sc(N[C@H]4CC[C@H](O)CC4)nn23)cc1C(F)(F)F — 0.64 log units lower, 6.98
- CNC(=O)C1CCCN(c2nn3c(-c4cnc(N)c(C(F)(F)F)c4)cnc3s2)C1 (configuration not stated) — 0.95 log units lower, 6.67
- Nc1ncc(-c2cnc3sc(NC4CCNCC4)nn23)cc1C(F)(F)F — 0.45 log units lower, 7.17
- CCNC(=O)N1CCC(N(C)c2nn3c(-c4cnc(N)c(C(F)(F)F)c4)cnc3s2)CC1 — lower, 6.00 to 7.30
- NC(=O)C1CCN(c2nn3c(-c4cnc(N)c(C(F)(F)F)c4)cnc3s2)CC1 — lower, 6.00 to 7.30
- Nc1ncc(-c2cnc3sc(N4CCC(N)CC4)nn23)cc1C(F)(F)F — lower, 6.00 to 7.30
- CN(c1nn2c(-c3cnc(N)c(C(F)(F)F)c3)cnc2s1)C1CCN(C(=O)OC(C)(C)C)CC1 — lower, 6.00 to 7.30
- Nc1ncc(-c2cnc3sc(N4CCC(C(=O)O)CC4)nn23)cc1C(F)(F)F — lower, 6.00 to 7.30
- CN(c1nn2c(-c3cnc(N)c(C(F)(F)F)c3)cnc2s1)C1CCC(=NOCCF)CC1 (configuration not stated) — lower, 6.00 to 7.30
- CC(=O)N[C@H]1CC[C@@H](Nc2nn3c(-c4cnc(N)c(C(F)(F)F)c4)cnc3s2)CC1 — lower, 6.00 to 7.30
- CC(C)(C)OC(=O)NCCNc1nn2c(-c3cnc(N)c(C(F)(F)F)c3)cnc2s1 — lower, 6.00 to 7.30
- Nc1ncc(-c2cnc3sc(N4CCN5CCNCC5C4)nn23)cc1C(F)(F)F (configuration not stated) — 0.55 log units lower, 7.07
- CN1CCC(CNc2nn3c(-c4cnc(N)c(C(F)(F)F)c4)cnc3s2)CC1 — 1.10 log units lower, 6.52
- COC1CCN(c2nn3c(-c4cnc(N)c(C(F)(F)F)c4)cnc3s2)CC1 — lower, 6.00 to 7.30
- Nc1ncc(-c2cnc3sc(N4CCCNC4=O)nn23)cc1C(F)(F)F — 0.85 log units lower, 6.77
- NCC1CCCN(c2nn3c(-c4cnc(N)c(C(F)(F)F)c4)cnc3s2)C1 (configuration not stated) — lower, 6.00 to 7.30
- Nc1ncc(-c2cnc3sc(NC4CCC(=NOCCF)CC4)nn23)cc1C(F)(F)F (configuration not stated) — not separable, 7.30 to 9.00
- CCNC(=O)NC1CCCN(c2nn3c(-c4cnc(N)c(C(F)(F)F)c4)cnc3s2)C1 (configuration not stated) — 1.30 log units lower, 6.32
